Experimental data: patent US11958868B2, “Methods of using metal complexes to promote wound healing” (University of Macau, priority 2022, dated 2024)

Each compound was assayed on HIF-1α activation of the HRE-driven reporter (assay: Dual luciferase reporter assay (HRE-driven luciferase activity)). Conditions: HEK293 cells.
Format: cell-based, Human
Experimental: A library of cyclometalated Ir(III)/Rh(III) metal complexes 1-14 (as racemates) with diverse structures were selected for initial screening, in order to identify favorable substructures for the design of the next round of complexes (FIG. 1a). In cells, HIF-1α moves into the nucleus and binds to the hypoxia-response element (HRE) in the promoters of transactivated genes. In this study, the dual luciferase reporter assay (DLR) was performed to monitor the variations of HRE-driven luciferase activity induced by the complexes (FIG. 1f). Human embryonic kidney HEK293 cells were treated with complexes (10 μM) for 8 h, and the HRE-driven luciferase activity of the cell lysates was determined. Complexes that inhibit the interaction between VHL and HIF-1α would be expected to increase the level of HRE-driven luciferase activity in the cell lysates.
HEK293 cells were seeded in six well plates 24 h before transfection. HRE-luciferase plasmid (4 μg) and pRL-TK plasmid (4 μg) and TurboFect reagent (6 μL) were mixed together in serum-free DMEM medium and the resulting solution was incubated for 20 min at room temperature. The mixture was the added dropwise to the HEK293 cells in the wells. The cells were incubated for 32 h at 37° C. in a CO2 incubator before use.
The inhibition of HIF-1α activity was assayed by a reporter assay using a dual luciferase reporter assay system (Promega, Madison, WI, USA). Transiently transfected cells were treated with complexes or P1 for 8 h before measurement. Luciferase activity was integrated over a 10 second period and measured using a spectrophotometer (Spectra-max M5, Molecular Devices, USA). The results were standardization with the activity of Renilla luciferase. All data are expressed as means±SD.
For Brc1ccc(-c2ccccn2)cc1 [brpy, 2-(4-bromophenyl)pyridine], the “Effect of isolated ligands on HRE-driven luciferase activity” value was “neither brpy nor dmeophen had any significant effect”.
COc1ccnc2c1ccc1c(OC)ccnc12 [dmeophen, 4,7-dimethoxy-1,10-phenanthroline] was tested, and the “Effect of isolated ligands on HRE-driven luciferase activity” value was “neither brpy nor dmeophen had any significant effect”.

Same assay, conditions: HEK293 cells, 8 h
COc1cc[n+]2c3c1ccc1c(OC)cc[n+](c13)[Rh-3]213([c]2cc(Br)ccc2-c2cccc[n+]21)[c]1cc(Br)ccc1-c1cccc[n+]13.F[P-](F)(F)(F)(F)F [compound 1] was tested, and the “HRE-driven luciferase activity compared to positive control P1 (and parent complex 1)” value was “slightly higher activity compared to the positive control compound, P1”.

Same assay, conditions: HEK293 cells, 8 h; complexes 1a-1n; ranking and comparison in words
With COc1cc[n+]2c3c1ccc1c(OC)cc[n+](c13)[Rh-3]213([c]2ccccc2-c2cccc[n+]21)[c]1ccccc1-c1cccc[n+]13.F[P-](F)(F)(F)(F)F [1b] the “HRE-driven luciferase activity, second round of screening” value was “substantially more active than the Rh(III) congener 1b”.
In the case of COc1cc[n+]2c3c1ccc1c(OC)cc[n+](c13)[Ir-3]213([c]2cc(Br)ccc2-c2cccc[n+]21)[c]1cc(Br)ccc1-c1cccc[n+]13.F[P-](F)(F)(F)(F)F [1c], the “HRE-driven luciferase activity, second round of screening” value is reported as “drastically reduced activity”.
For COc1cc[n+]2c3c1ccc1c(OC)cc[n+](c13)[Ir-3]213([c]2ccccc2-c2c(C)ccc[n+]21)[c]1ccccc1-c1c(C)ccc[n+]13.F[P-](F)(F)(F)(F)F [1e], the “HRE-driven luciferase activity, second round of screening” value was “substantially weakens the activity of the complex”.
COc1cc[n+]2c3c1ccc1c(OC)cc[n+](c13)[Ir-3]213([c]2cc(C)ccc2-c2cccc[n+]21)[c]1cc(C)ccc1-c1cccc[n+]13.F[P-](F)(F)(F)(F)F [1g] was tested, and the “HRE-driven luciferase activity, second round of screening” value was “second-most potent compound”.
For COc1cc[n+]2c(c1)-c1cc(OC)cc[n+]1[Ir-3]213([c]2cc(Br)ccc2-c2cccc[n+]21)[c]1cc(Br)ccc1-c1cccc[n+]13.F[P-](F)(F)(F)(F)F [1h], the “HRE-driven luciferase activity, second round of screening” value was “led to a decrease in activity”.
Brc1ccc2[c](c1)[Rh-3]13([c]4cc(Br)ccc4-c4cccc[n+]41)([n+]1ccccc1-2)[n+]1cccc2ccc4ccc[n+]3c4c21.F[P-](F)(F)(F)(F)F [1i] was tested, and the “HRE-driven luciferase activity, second round of screening” value was “drastically reduced activity”.
With Brc1ccc2[c](c1)[Ir-3]13([c]4cc(Br)ccc4-c4cccc[n+]41)([n+]1ccccc1-2)[n+]1cccc2ccc4ccc[n+]3c4c21.F[P-](F)(F)(F)(F)F [1j] the “HRE-driven luciferase activity, second round of screening” value was “drastically reduced activity”.
For Brc1ccc2[c](c1)[Rh-3]13([c]4cc(Br)ccc4-c4cccc[n+]41)([n+]1ccccc1-2)[n+]1ccc(Br)c2ccc4c(Br)cc[n+]3c4c21.F[P-](F)(F)(F)(F)F [1k], the “HRE-driven luciferase activity, second round of screening” value was “drastically reduced activity”.
For Brc1ccc2[c](c1)[Ir-3]13([c]4cc(Br)ccc4-c4cccc[n+]41)([n+]1ccccc1-2)[n+]1ccc(Br)c2ccc4c(Br)cc[n+]3c4c21.F[P-](F)(F)(F)(F)F [1l], the “HRE-driven luciferase activity, second round of screening” value was “drastically reduced activity”.
For Brc1ccc2[c](c1)[Rh-3]13([c]4cc(Br)ccc4-c4cccc[n+]41)([n+]1ccccc1-2)[n+]1ccc(-c2ccccc2)c2ccc4c(-c5ccccc5)cc[n+]3c4c21.F[P-](F)(F)(F)(F)F [1m], the “HRE-driven luciferase activity, second round of screening” value was “drastically reduced activity”.
With Brc1ccc2[c](c1)[Ir-3]13([c]4cc(Br)ccc4-c4cccc[n+]41)([n+]1ccccc1-2)[n+]1ccc(-c2ccccc2)c2ccc4c(-c5ccccc5)cc[n+]3c4c21.F[P-](F)(F)(F)(F)F [1n] the “HRE-driven luciferase activity, second round of screening” value was “drastically reduced activity”.

Same assay, conditions: HEK293 cells, complexes 10 μM, 8 h; complexes 1-14; ranking in words
With COc1cc[n+]2c3c1ccc1c(OC)cc[n+](c13)[Rh-3]213([c]2cc(Br)ccc2-c2cccc[n+]21)[c]1cc(Br)ccc1-c1cccc[n+]13.F[P-](F)(F)(F)(F)F [compound 1] the “HRE-driven luciferase activity (HIF-1α transcriptional activity), first round of screening” value was “highest activation of HIF-1α transcriptional activity”.
With CCc1ccc2[c](c1)[Rh-3]13([c]4cc(CC)ccc4-c4cccc[n+]41)([n+]1ccccc1-2)[n+]1ccc(-c2ccccc2)c2ccc4c(-c5ccccc5)cc[n+]3c4c21.F[P-](F)(F)(F)(F)F [compound 5] the “HRE-driven luciferase activity (HIF-1α transcriptional activity), first round of screening” value was “next most potent candidate”.
For CCc1ccc2[c](c1)[Rh-3]13([c]4cc(CC)ccc4-c4ccc5ccccc5[n+]41)([n+]1ccc(OC)cc1-c1cc(OC)cc[n+]13)[n+]1c-2ccc2ccccc21.F[P-](F)(F)(F)(F)F [compound 6], the “HRE-driven luciferase activity (HIF-1α transcriptional activity), first round of screening” value was “low activity”.
With COC(=O)c1cc[n+]2c(c1)-c1cc(C(=O)OC)cc[n+]1[Rh-3]213([c]2ccccc2-c2ccc4ccccc4[n+]21)[c]1ccccc1-c1ccc2ccccc2[n+]13.F[P-](F)(F)(F)(F)F [compound 7] the “HRE-driven luciferase activity (HIF-1α transcriptional activity), first round of screening” value was “low activity”.
With F[P-](F)(F)(F)(F)F.O=[N+]([O-])c1cc2ccc[n+]3c2c2c1ccc[n+]2[Ir-3]312([c]3cc(F)cc(F)c3-c3cccc[n+]31)[c]1cc(F)cc(F)c1-c1cccc[n+]12 [compound 9] the “HRE-driven luciferase activity (HIF-1α transcriptional activity), first round of screening” value was “low activity”.

Each compound was assayed against T1, human recombinant VHL:ElonginB:ElonginC (VBC) complex (Homo sapiens, UniProt P40337) (assay: Fluorescence-based protein thermal shift assay (FTS) of VBC). Conditions: 100 μM.
T1 construct: made in house
T1 sequence (P40337 whole entry): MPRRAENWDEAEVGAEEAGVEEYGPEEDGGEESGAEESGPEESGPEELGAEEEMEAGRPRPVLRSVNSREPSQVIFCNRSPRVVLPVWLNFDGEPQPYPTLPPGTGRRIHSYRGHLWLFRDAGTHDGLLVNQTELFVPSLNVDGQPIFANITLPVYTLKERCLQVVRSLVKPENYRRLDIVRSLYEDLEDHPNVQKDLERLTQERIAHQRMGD
T1 sequence (Q15370 whole entry partner): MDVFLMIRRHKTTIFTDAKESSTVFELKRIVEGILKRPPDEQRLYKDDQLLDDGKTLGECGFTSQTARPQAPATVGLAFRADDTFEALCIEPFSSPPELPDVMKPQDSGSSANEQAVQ
T1 sequence (Q15369 whole entry partner): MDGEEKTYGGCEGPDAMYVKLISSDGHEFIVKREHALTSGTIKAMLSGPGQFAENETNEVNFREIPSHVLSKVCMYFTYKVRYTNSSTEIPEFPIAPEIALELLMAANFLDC
Format: binding
Experimental: HEK293 cells were treated with vehicle DMSO (1% for 2 h), 1a (0.3, 1, 3, 6 and 9 μM for 2 h), VH298 (100 μM for 2 h), MG132 (20 μM for 3 h), or FG-4592 (100 μM for 2 h) before lysis. Cell lysates were collected and incubated with VHL antibody overnight at 4° C. The proteins were immunoprecipitated using agarose beads. The levels of hydroxy-HIF-1α co-precipitated with VHL were detected using a hydroxy-HIF-1α antibody, and then visualized using ECL Western Blotting Detection Reagent (GE Healthcare). (B) Cellular thermal shift assays to monitor cellular target engagement of VHL and HIF-1α. HEK293 cell lysates were treated with 1a (3 μM) at room temperature for 30 min and then heated at different temperature ranging from 48° C. to 68° C. for 5 min. The protein samples were collected and detected by Western blotting using either VHL or PHD2 antibodies. (C) Fluorescence-based protein thermal shift assay of VBC in the presence or absence of VH298 (100 μM) and complex 1a (100 μM). […] Data are expressed as means±SD (n=3 independent experiments for figures a and b, samples for figures c and e), P values were calculated using a two-sided t-test. *P<0.05, **P<0.01 vs. DMSO group.
After incubating HEK293 cell lysates with complex 1a followed by heating to set temperatures, VHL and PHD2 levels in the soluble fraction were quantitated by Western blotting.
Cc1ncsc1-c1ccc(CNC(=O)[C@@H]2C[C@@H](O)CN2C(=O)[C@@H](NC(=O)C2(C#N)CC2)C(C)(C)C)cc1 [VH298, reference compound] was tested, and the “Shift of the melting curve of purified VBC (FTS)” value was “ca. 5.0 °C”.

Each compound was assayed on HIF-1α levels in A498 (VHL-null) cells (assay: HIF-1α accumulation in VHL-null A498 cells). Conditions: 1a 3 μM, VH298 100 μM, 2 h.
Format: cell-based
Experimental: FIG. 3 depicts the effect of complex 1a on HIF-1α target gene products in cellulo. (A) Effect of complex 1a on specific proteins (GLUT1, VEGF, and EPO) mediated by HIF-1α in HEK293 cells. HEK293 cells were treated with 1a for 2 h. Cell lysis were collected and analyzed by the Western blotting. (B) Complex 1a has no effect on HIF-1α accumulation in a VHL null cancer cell line. A498 (VHL-null), or HEK293 cells were treated with 1% DMSO, 1a (3 μM), VH298 (100 μM), and FG-4592 (100 μM) for 2 h before lysis. (C) Effect of complex 1a on EPO, GLUT1, and VEGF levels in HEK293 cells with or without HIF-1α knockdown. Left: The expression levels of EPO, GLUT1, and VEGF in HEK293 cells with or without knockdown HIF-1α in the presence or absence of 1a. Right: Densitometry analysis of EPO, GLUT1, and VEGF levels on the Western blot. HIF-1α siRNA [sense, 5′-[…]-3′ (SEQ ID NO:1), antisense, 5′-[…]-3′ (SEQ ID NO:2)]. Negative control (NC) siRNA [sense, 5′-[…]-3′ (SEQ ID NO:3), antisense, 5′-[…]-3′ (SEQ ID NO:4)]. Data are expressed as means±SD (n=3 independent experiments), P values were calculated using a two-sided t-test. #P<0.05, P<0.01 HIF-1α siRNA vs. NC siRNA, *P<0.05, **P<0.01 1a vs. vehicle/DMSO group, respectively. […]
Cc1ncsc1-c1ccc(CNC(=O)[C@@H]2C[C@@H](O)CN2C(=O)[C@@H](NC(=O)C2(C#N)CC2)C(C)(C)C)cc1 [VH298, reference compound] was tested, and the “HIF-1α levels in A498 cells” value was “no increase in HIF-1α levels”.

These compounds were tested against VHL (Homo sapiens, UniProt P40337) (assay: Binding affinity to VHL compared with VH298). Conditions: VH298 vs complex 1a.
Sequence of VHL (P40337 whole entry): as the sequence (P40337 whole entry) above
Sequence of VHL (Q15370 whole entry partner): as the sequence (Q15370 whole entry partner) above
Sequence of VHL (Q15369 whole entry partner): as the sequence (Q15369 whole entry partner) above
Cc1ncsc1-c1ccc(CNC(=O)[C@@H]2C[C@@H](O)CN2C(=O)[C@@H](NC(=O)C2(C#N)CC2)C(C)(C)C)cc1 [VH298, reference compound] was tested, and the “Binding affinity to VHL, stronger than complex 1a” value was “ca. 100 fold”.
